Assay results as given in patent US10894782B2, “Modulators of P97 AAA ATPase activity” (University of Pittsburgh—Of the Commonwealth System of …, priority 2016, dated 2021).
Like-named read-outs stand apart in the source and are kept apart here.

Target: P97 (Homo sapiens (Human), UniProt P55072)
Assay: P97 Biomolgreen ATPase assay, 200 μM ATP
Assay type: biochemical
[1] = read-out: P97 Biomolgreen, IC50

Sequence of P97 (P55072 whole entry): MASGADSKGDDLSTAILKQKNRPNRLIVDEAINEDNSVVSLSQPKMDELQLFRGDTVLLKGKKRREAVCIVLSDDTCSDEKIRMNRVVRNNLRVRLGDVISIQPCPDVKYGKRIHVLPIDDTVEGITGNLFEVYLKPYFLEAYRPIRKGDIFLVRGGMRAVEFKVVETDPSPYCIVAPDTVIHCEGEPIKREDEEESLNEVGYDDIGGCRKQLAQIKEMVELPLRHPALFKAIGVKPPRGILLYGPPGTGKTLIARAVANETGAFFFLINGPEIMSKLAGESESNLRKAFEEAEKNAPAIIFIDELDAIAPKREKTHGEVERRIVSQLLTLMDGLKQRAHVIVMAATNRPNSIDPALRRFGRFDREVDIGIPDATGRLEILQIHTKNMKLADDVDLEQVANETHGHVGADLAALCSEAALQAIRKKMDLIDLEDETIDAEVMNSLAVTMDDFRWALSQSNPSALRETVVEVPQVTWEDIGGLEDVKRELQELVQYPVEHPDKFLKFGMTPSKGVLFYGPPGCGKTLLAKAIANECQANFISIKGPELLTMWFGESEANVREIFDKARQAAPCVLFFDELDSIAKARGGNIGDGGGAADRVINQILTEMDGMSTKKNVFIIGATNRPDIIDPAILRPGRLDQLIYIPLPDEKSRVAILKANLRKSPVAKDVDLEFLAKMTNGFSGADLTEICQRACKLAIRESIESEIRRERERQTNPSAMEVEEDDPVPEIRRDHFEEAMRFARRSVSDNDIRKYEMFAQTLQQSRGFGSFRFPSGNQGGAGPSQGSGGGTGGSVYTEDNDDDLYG

Row | SMILES | IC50 [1] | IC50 (P97 Biomolgreen, IC50 (μM))
1 | Cc1cc(OCc2nnc(CC3CCCC3)n2-c2cccnc2)ccc1C#CCOC(=O)NCCC(=O)N1CCN(C)CC1 [Compound 70] | 0.098 µM | 
2 | Cc1cc(OCc2nnc(SC3C=CCCC3)n2-c2cccnc2)ccc1C#CC1(O)CN(C(=O)OC(C)(C)C)C1 (stereo not shown) [Compound 72] | 0.18 µM | 
3 | Cc1cc(OCc2nnc(SC3C=CCCC3)n2-c2cccnc2)ccc1C#CCNC(=O)NCCN1CCN(C(C)C)CC1 (stereo not shown) [Compound 73] | 0.052 µM | 
4 | Cc1cc(OCc2nnc(SC3CCCC=C3F)n2-c2cccnc2)ccc1C#CCO (stereo not shown) [Compound 74] | 0.51 µM | 
5 | Cc1cc(OCc2nnc(SC3C=CCCC3)n2-c2cccnc2)ccc1C#CCNS(=O)(=O)C1CCN(C(=O)OC(C)(C)C)CC1 (stereo not shown) [Compound 78] | 0.09 µM | 
6 | Cc1cc(OCc2nnc(SC3C=CCCC3)n2-c2cccnc2)ccc1C#CCO (stereo not shown) [Compound 79] | 0.037 µM | 
7 | Cc1cc(OCc2nnc(SC3CCCC=C3F)n2-c2cccnc2)ccc1C#CCOC(=O)NCCN1CCN(C)CC1 (stereo not shown) [Compound 80] | 0.23 µM | 
8 | Cc1cc(OCc2nnc(SC3CCCC=C3F)n2-c2cccnc2)ccc1C#CCOC(=O)NCCN1CCN(C(C)C)CC1 (stereo not shown) [Compound 81] | 0.16 µM | 
9 | CN1CCN(CCNC(=O)OCC#Cc2ccc(OCc3nnc(SC4C=CCCC4)n3-c3cccnc3)cc2C(F)(F)F)CC1 (stereo not shown) [Compound 82] | 0.043 µM | 
10 | CC(=O)NCC#Cc1ccc(OCc2nnc(SC3C=CCCC3)n2-c2cccnc2)cc1C (stereo not shown) [Compound 83] | 0.046 µM | 
11 | Cc1cc(OCc2nnc(SC3C=CCCC3)n2-c2cncc(Cl)c2)ccc1C#CCO (stereo not shown) [Compound 84] | 2.11 µM | 
12 | Cc1cc(OCc2nnc(SC3C=CCCC3)n2-c2cncc(Cl)c2)ccc1C#CCOC(=O)NCCN1CCN(C)CC1 (stereo not shown) [Compound 85] | 0.934 µM | 
13 | C=C(C)C(=O)NCC#Cc1ccc(OCc2nnc(SC3C=CCCC3)n2-c2cccnc2)cc1C (stereo not shown) [Compound 86] | 0.06 µM | 
14 | C/C=C/C(=O)NCC#Cc1ccc(OCc2nnc(SC3C=CCCC3)n2-c2cccnc2)cc1C (stereo not shown) [Compound 87] | 0.058 µM | 
15 | Cc1cc(OCc2nnc(SC3C=CCCC3)n2-c2cccnc2)ccc1C#CCNCCN(C)C (stereo not shown) [Compound 88] | 0.06 µM | 
16 | Cc1cc(OCc2nnc(SC3C=CCCC3)n2-c2cccnc2)ccc1C#CCOC(=O)NCCN1CCN(C(C)C)CC1 (stereo not shown) [Compound 90] | 0.084 µM | 

Row | SMILES | IC50 [1] | IC50 (P97 Biomolgreen, IC50 (μM))
17 | [2H]C1([2H])C([2H])([2H])C([2H])([2H])C([2H])(Sc2nnc(COc3ccc(C#CCO)c(C)c3)n2-c2cccnc2)C1([2H])[2H] [Compound 93] |  | 0.048 µM
18 | Cc1cc(OCc2nnc(S(=O)(=O)C3C=CCCC3)n2-c2cccnc2)ccc1C#CCO (stereo not shown) [Compound 98] | 4.82 µM | 
19 | Cc1cc(OCc2nnc(OC3CCCC3)n2-c2cccnc2)ccc1C#CCO [Compound 99] | 0.183 µM | 
20 | [2H]C1([2H])C([2H])([2H])C([2H])([2H])C([2H])(Sc2nnc(COc3ccc(C#CCOC(=O)NCCN4CCN(C(C)C)CC4)c(C)c3)n2-c2cccnc2)C1([2H])[2H] [Compound 100] |  | 0.025 µM
21 | Cc1cc(C(=O)NCC#Cc2ccc(OCc3nnc(SC4C=CCCC4)n3-c3cccnc3)cc2C)no1 (stereo not shown) [Compound 104] | 0.05 µM | 
22 | [2H]C1([2H])C([2H])([2H])C([2H])([2H])C([2H])(Sc2nnc(COc3ccc(C#CCO)c(F)c3)n2-c2cccnc2)C1([2H])[2H] [Compound 105] |  | 0.03 µM
23 | [2H]C1([2H])C([2H])([2H])C([2H])([2H])C([2H])(Sc2nnc(COc3ccc(C#CCOC(=O)NC)c(F)c3)n2-c2cccnc2)C1([2H])[2H] [Compound 106] |  | 0.02 µM
24 | [2H]C([2H])(O)C#Cc1ccc(OCc2nnc(SC3([2H])C([2H])([2H])C([2H])([2H])C([2H])([2H])C3([2H])[2H])n2-c2cccnc2)cc1F [Compound 109] |  | 0.03 µM
25 | Cc1cc(OCc2nnc(SC3CCCC3)n2-c2cccnc2)ccc1C#CCOC(=O)NCCNC(=O)CC1[C@H]2CC3C[C@H](C2)C[C@H]1C3 (stereo partly shown) [Compound 110] | 0.06 µM | 
26 | OCC#Cc1ccc(OCc2nnc(SC3C=CCCC3)n2-c2cccnc2)c(F)c1F (stereo not shown) [Compound 113] | 0.04 µM | 
27 | N#Cc1cc(OCc2nnc(SC3C=CCCC3)n2-c2cccnc2)ccc1C#CCO (stereo not shown) [Compound 115] | 0.1 µM | 
28 | COc1cc(C#CCO)c(F)cc1OCc1nnc(SC2C=CCCC2)n1-c1cccnc1 (stereo not shown) [Compound 116] | 0.04 µM | 
29 | [2H]C1([2H])C([2H])([2H])C([2H])([2H])C([2H])(Sc2nnc(CNc3ccc(C#CCO)c(C)c3)n2-c2cccnc2)C1([2H])[2H] [Compound 117] |  | 0.99 µM
30 | [2H]C1([2H])C([2H])([2H])C([2H])([2H])C([2H])(Sc2nnc(COc3cc(F)c(C#CCO)cc3F)n2-c2cccnc2)C1([2H])[2H] [Compound 123] |  | 0.021 µM
31 | [2H]C1([2H])C([2H])([2H])C([2H])([2H])C([2H])(Sc2nnc(COc3cc(F)c(C#CCOC(=O)NC4CCN(C)CC4)cc3F)n2-c2cccnc2)C1([2H])[2H] [Compound 124] |  | 0.01 µM
32 | [2H]C1([2H])C([2H])([2H])C([2H])([2H])C([2H])(Sc2nnc(COc3ccc(C#CCOC(=O)NC4CCN(C)CC4)c(C)c3)n2-c2cccnc2)C1([2H])[2H] [Compound 125] |  | 0.016 µM

Continued, values first:

Row | IC50 [1] | IC50 (P97 Biomolgreen, IC50 (μM)) | SMILES
33 | 0.03 µM |  | Cc1cc(OCc2nnc(SC3C=CCCC3)n2-c2cccnc2)ccc1C#CCOC(=O)N1CCN(C)CC1 (stereo not shown) [Compound 76]
34 | 0.02 µM |  | CN1CCN(CCNC(=O)OCC#Cc2ccc(OCc3nnc(SC4C=CCCC4)n3-c3cccnc3)cc2F)CC1 (stereo not shown) [Compound 77]
35 | 0.028 µM |  | Cc1cc(OCc2nnc(SC3CCCC3)n2-c2cccnc2)ccc1C#CCO [Compound 89]
36 | 0.026 µM |  | C=CC(=O)NCC#Cc1ccc(OCc2nnc(SC3C=CCCC3)n2-c2cccnc2)cc1C (stereo not shown) [Compound 92]
37 | 0.03 µM |  | CCC(=O)NCC#Cc1ccc(OCc2nnc(SC3C=CCCC3)n2-c2cccnc2)cc1C (stereo not shown) [Compound 94]
38 | 0.03 µM |  | Cc1cc(OCc2nnc(SC3C=CCCC3)n2-c2cccnc2)ccc1C#CCNC(=O)CCl (stereo not shown) [Compound 95]
39 | 0.026 µM |  | OCC#Cc1ccc(OCc2nnc(SC3C=CCCC3)n2-c2cccnc2)cc1F (stereo not shown) [Compound 97]
40 | 0.03 µM |  | Cc1cc(OCc2nnc(SC3C=CCCC3)n2-c2cccnc2)ccc1C#CCOC(=O)N1CCN(C(C)C)CC1 (stereo not shown) [Compound 101]
41 | 0.03 µM |  | CC(=O)N1CCN(C(=O)OCC#Cc2ccc(OCc3nnc(SC4C=CCCC4)n3-c3cccnc3)cc2C)CC1 (stereo not shown) [Compound 102]
42 | 0.03 µM |  | Cc1cc(OCc2nnc(SC3C=CCCC3)n2-c2cccnc2)ccc1C#CCNC(=O)C1CC1 (stereo not shown) [Compound 103]
43 | 0.013 µM |  | CN1CCN(CCNC(=O)OCC#Cc2ccc(OCc3nnc(SC4C=CCCC4)n3-c3cccnc3)cc2F)CC1 (stereo not shown) [Compound 107]
44 | 0.03 µM |  | Cc1cc(OCc2nnc(SC3CCCC3)n2-c2cccnc2)ccc1C#CCOC(=O)NCCOCCNC(=O)CC1[C@H]2C[C@@H]3C[C@@H](C[C@H]1C3)C2 (stereo partly shown) [Compound 111]
45 | 0.025 µM |  | CCC(=O)NCC#Cc1ccc(OCc2nnc(SC3C=CCCC3)n2-c2cccnc2)cc1C (stereo not shown) [Compound 112]
46 | 0.02 µM |  | OCC#Cc1cc(F)c(OCc2nnc(SC3C=CCCC3)n2-c2cccnc2)cc1F (stereo not shown) [Compound 114]
47 | 0.017 µM |  | CN1CCC(NC(=O)OCC#Cc2ccc(OCc3nnc(SC4C=CCCC4)n3-c3cccnc3)c(F)c2F)CC1 (stereo not shown) [Compound 118]
48 | 0.012 µM |  | CN1CCC(NC(=O)OCC#Cc2c(F)cc(OCc3nnc(SC4C=CCCC4)n3-c3cccnc3)cc2F)CC1 (stereo not shown) [Compound 120]
49 | 0.019 µM |  | COc1cc(C#CCOC(=O)NC2CCN(C)CC2)c(F)cc1OCc1nnc(SC2C=CCCC2)n1-c1cccnc1 (stereo not shown) [Compound 122]
